One experiment has as its system CPB adult antenna. The experiment can be described thus: Coupled GC/electroantennogram detection (GC/EAD, EAG). The arrangement: species or system Leptinotarsa decemlineata. The conditions noted are these: for EAD response to compound in volatile collections (in words): volatiles from potato plants / CPB feeding on plant. The procedure: Vertical bars represent standard errors (N=6, 3 males and 3 females).
GC/EAD analysis of volatile collections: One microlitre samples of volatile collections were injected into a Hewlett Packard™ Model 5890A gas chromatograph (GC) equipped with an HP-5 capillary column (crosslinked 5% PH ME Siloxane; film thickness 0.25 μm; length 30 m; i.d. 0.25 mm) and flame ionization detector (FID). The effluent from the column was split using a Gerstel™ GraphPack-3D/2 splitter with a ratio of ˜1 to the GC (FID): 4 to an electroantennogram preparation of a CPB adult (EAD). The EAD preparation was an adult CPB antenna removed and mounted between two glass capillary electrodes filled with 0.1M NaCl. Ag—AgCl wires in the glass capillaries. An effluent conditioning assembly to carry GC effluent over a CPB antennal preparation, hardware, and software for data collection and analyses using a computer were obtained from SYNTECH (Hilversum, the Netherlands). After an initial temperature of 50° C. held for 2 minutes following injection, the GC oven increased at 15° C./min to 235° C. which was held for 8 minutes.
(§1) Sensitivity of antennal olfactory receptors for the racemate and optical isomers of the male specific compound were tested using coupled GC/EAD and single sensillum recording techniques. GC/EAD tests involved injection of 1 μl of serial dilutions of 3,7-dimethyl-2-oxo-oct-6-ene-1,3-diol (CPB I).

Experiment [1] has as its system antennal olfactory receptors (short sensillum on the penultimate antennal segment of a CPB). In words: Single sensillum (single cell) recording of receptor neuron response. The arrangement: species or system Leptinotarsa decemlineata. The conditions noted are these: 100 ng source load; solvent control 8. Here is the method: as §1
Experiment [2] concerns Colorado potato beetle (CPB). The experiment can be described thus: Open Y-track olfactometer behavioral bioassay, optical isomers vs solvent control. It is filed as in vivo, Leptinotarsa decemlineata. The conditions noted are these: serial source loads 0.0001 to 1.0 μg vs solvent control, male and female. Here is the method:
Chemical blends and plant foliage were tested for behavioral activity in an open Y-track olfactometer modified after Visser and Piron (Visser, J. H., and P. G. M. Piron, Proceedings of the Section Experimental and Applied Entomology of the Netherlands Entomological Society Amsterdam, 9: 41-46 (1998)) and described in detail by Dickens (Dickens, J. C., Agric. Forest Entomol., 1: 47-54 (1999)). In brief, odorous stimuli emanating from volatile collections from CPB males feeding on potato plants or the male-specific compound on filter paper discs (2.5 cm dia.; Whatman™ #1 filter paper) in Ehrlenmeyer flasks were delivered to either side of the device. Hydrocarbon free air that was humidified by passing through distilled water carried the odor molecules to either arm of the bioassay apparatus. Treatments were replenished after 30 min of use in the bioassay apparatus. Airflow was regulated to 1 l/min by flowmeters. Experiments were conducted in a darkened room at 22° C. in which the only source of light was that associated with the bioassay device. For all bioassays, at least 20 males and 20 females were tested.
Volatile collections from male CPB feeding for three hours on a potato plant and serial dilutions of the male specific compound were tested as 10 μl aliquots placed on a filter paper disc as described above. The male specific compound was tested at 1.0 μg/10 μl solvent (hexane) and in a dilution series ranging from 0.0001 to 1.0 μg/10 μl solvent.
Prior to testing at age 7-14 days, unmated insects were held individually in 5.5 oz. cups, provided with fresh potato foliage on a continuous basis, and maintained under incubator conditions of a 16:8 light:dark cycle, 80-90% R.H., and “day” and “night” temperatures of 25° C. and 23° C., respectively. On the day of testing, insects were transferred to smaller 1 oz. cups and held for 1-3 hrs with moist filter paper but no foliage, then held in darkness for an additional 1-2 hrs.
Individual testing in a darkened room at 22° C. began by allowing the beetle to climb onto or be placed approximately midway up the vertical rod of the “T.” In response to a positive phototaxis to light from a flashlight mounted above the “T” and negative geotaxis, the beetles generally climbed upward. Once the insect began waving its antennae, presumably in response to test odors, its forward progress continued. Orientation was scored as soon as the test insect had moved completely from the horizontal to one of the 45 extension arms of the bioassay device. Following each test, the bioassay device was cleaned with acetone to remove contamination left by the insect. For any given series of tests, approximately half were done with the treatment and associated test apparatus on one side, and half were done with them on the other side.
Laboratory bioassays were assessed for significant differences by the hypothesis on binomial proportions based on the standard normal approximation (Brase, C. H., and C. P. Brase (1983), Understanding Statistics, Lexington, Mass.: D. C. Heath).

In another experiment the test system is male CPB. The experiment can be described thus: Enhancement of production of male-specific compound CPB I (24 hour volatile collection). It is filed as in vivo, Leptinotarsa decemlineata. The procedure: CPB I=male-specific compound; P=6-methyl-5-hepten-2-one; FID=response of flame ionization detector. Electroantennogram (EAD) response is included for A-C.
Volatiles were collected from male CPB feeding on 4.8 g of potato foliage in the 3 L VCC. Collections were made continuously for a 24-hour period with a single VCT. Subsequently, volatiles from groups of 20 female CPB were similarly collected in the 3 L VCC continuously for 24 hours with a single VCT.
In an attempt to increase production of the male specific compound, males were subject to the following treatments: JHIII in acetone, extirpation of both antennae, and extirpation of both antennae+JHIII in acetone. All treatments were repeated at least three times. For the JHIII treatment, […] of a 5 μg/ml solution of JHIII was applied to the prothoracic sternum between the coxae. Antennae were removed at the third segment from the proximal end. All treatments were performed 1 hour before placing beetles into the VCC. For the treatment with both antennae removed+JHIII, three separate collections were made continuously for at least seven days following treatment. The collection chamber was cleaned, rinsed, and fresh foliage added daily.

`CCCCCCCCC=O` [nonanal, reference compound]: the “EAD response to compound in volatile collections (in words)” value in the experiment with CPB adult antenna is given as “EAD responses were present”.

`OCCc1ccccc1` [2-phenyl ethanol, reference compound]: in the experiment with CPB adult antenna, the “EAD response to compound in volatile collections (in words)” value was “an EAD response for 2-phenyl ethanol was also observed”.

As to `CC(C)=CCC[C@@](C)(O)C(=O)CO` [(R)-CPB I], the “action potentials during 500 msec following the initial phasic increase” value in experiment [1] worked out at 9 action potentials. For the same molecule, the “orientation preference (in words)” value in experiment [2] is “inactive”; in experiment [2] (listed as (R)-enantiomer), “no significant preference”.

As for `COC(=O)/C=C(\C)CC/C=C(\C)CC[C@H]1OC1(C)C` [JH III, juvenile hormone III], the “production of CPB I after topical treatment” value in the experiment on male CPB (10 μg JH III topical, 20 males, 24 hour collection, untreated mean 53 ng) was determined as 396.2 ng. Besides, the “enhancement of collections of CPB I” value in the experiment on male CPB (JH III and antennectomy) was approximately 200 ×. For the same molecule, the “enhancement of CPB I production relative to untreated males” value with male CPB (JH III topical alone) is listed as “eightfold”. Further, the “production of CPB I after combined treatment” value in the experiment with male CPB (JH III topical and antennectomy) worked out at 8833 ng. For the same molecule, in the experiment with male CPB (JH III treatment and antennectomy), the “increase of quantities of CPB I released vs control insects” value is 166 times.

As for `CC(C)=CCCC(C)(O)C(=O)CO` (racemic) [racemic CPB I, 3,7-dimethyl-2-oxo-oct-6-ene-1,3-diol], in experiment [1], the “action potentials during 500 msec following the initial phasic increase” value amounted to 18 action potentials. Further, in the experiment with CPB adult antenna (10 ng injection, males and females combined), the “Mean EAG (in words)” value is recorded as “intermediate response”. Further, the “orientation preference (in words)” value in experiment [2] is “no significant preference”.

The record behind these values is patent publication US6958360B2, “Attractant pheromone for the Colorado potato beetle” (The United States of America as represented by the …, priority 2001, dated 2005).
